Biological target: hMAT2A (Homo sapiens (Human), UniProt P31153)
Experiment: Phosphate Sensor Fluorescence Assay (MAT2A enzyme inhibition)
Format: biochemical
Conditions: L-methionine 500 uM, ATP 500 uM, class symbols
Procedure, shortened: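 Recombinant MAT2A preincubated 15 min at room temperature with compound, then reacted 1 h at room temperature with 500 uM L-methionine and 500 uM ATP in Tris pH 7.5 buffer containing PNP/7-MEG.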

hMAT2A, sequence (P31153 whole entry): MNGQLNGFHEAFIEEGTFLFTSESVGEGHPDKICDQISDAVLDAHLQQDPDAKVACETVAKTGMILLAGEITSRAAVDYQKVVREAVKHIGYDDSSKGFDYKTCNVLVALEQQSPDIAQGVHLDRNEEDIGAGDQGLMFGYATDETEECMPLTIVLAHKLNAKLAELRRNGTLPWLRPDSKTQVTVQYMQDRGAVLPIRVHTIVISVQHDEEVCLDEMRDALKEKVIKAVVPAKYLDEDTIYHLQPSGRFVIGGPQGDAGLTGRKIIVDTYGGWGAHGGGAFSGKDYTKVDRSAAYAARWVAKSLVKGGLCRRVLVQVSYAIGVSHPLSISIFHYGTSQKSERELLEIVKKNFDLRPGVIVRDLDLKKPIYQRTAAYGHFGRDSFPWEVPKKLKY

IC50 [nM]	Structure (SMILES)
< 200	CNc1nc(=O)n(-c2ccccc2)c2nc(C(F)(F)F)ccc12 [Example 184, 4-(methylamino)-1-phenyl-7-(trifluoromethyl)pyrido[2,3-d]-pyrimidin-2(1H)-one]
< 200	CO[C@H]1CCN(c2nc(=O)n(-c3ccccc3)c3cc(Cl)ccc23)C1 [Example 196, (S)-7-chloro-4-(3-methoxypyrrolidin-1-yl)-1-phenylquinazolin-2(1H)-one]
< 200	Cc1ccccc1-n1c(=O)nc(N)c2ccc(C(F)(F)F)nc21 [Example 169, 4-amino-1-(2-methylphenyl)-7-(trifluoromethyl)pyrido[2,3-d]pyrimidin-2(1H)-one]
< 200	CNc1nc(=O)n(-c2ccc3[nH]ncc3c2)c2cc(Cl)ccc12 [Example 328, 1-(1H-indazol-5-yl)-7-chloro-4-(methyl-amino)hydroquinazolin-2-one]
< 200	C#Cc1ccc2c(NC)nc(=O)n(-c3ccccc3)c2c1 [Example 394, 7-ethynyl-4-(methylamino)-1-phenyl-hydroquinazolin-2-one]
< 200	Cc1ccc2c(NCC(F)(F)F)nc(=O)n(-c3ccccc3)c2n1 [Example 397, 7-methyl-1-phenyl-4-[(2,2,2-trifluoro-ethyl)amino]pyrido[2,3-d]pyrimidin-2(1H)-one]
200 to 500	CNc1nc(=O)n(-c2cnccc2OC)c2nc(C(F)(F)F)ccc12 [Example 92, 1-(4-methoxypyridin-3-yl)-4-(methyl-amino)-7-(trifluoromethyl)pyrido[2,3-d]pyrimidin-2(1H)-one]
< 200	CNc1nc(=O)n(-c2ccccc2)c2cc(C(F)(F)F)cc(F)c12 [Example 420, 5-fluoro-4-(methylamino)-1-phenyl-7-(trifluoromethyl)hydroquinazolin-2-one]
< 200	O=c1nc(N2CC3CC3C2)c2ccc(Cl)cc2n1-c1ccccc1 (stereo not drawn) [Example 222, 4-(3-azabicyclo[3.1.0]hex-3-yl)-7-chloro-1-phenylhydroquinazolin-2-one]
500 to 1000	CN(C)c1nc(=O)n(-c2cccc(NS(=O)(=O)C3(C)CC3)c2)c2cc(Cl)ccc12 [Example 211]
< 200	CNc1nc(=O)n(-c2ccccc2Cl)c2cc(Cl)ccc12 [Example 218, 7-chloro-1-(2-chlorophenyl)-4-(methylamino)quinazolin-2(1H)-one]
200 to 500	O=c1[nH]c(=O)n(-c2ccc3[nH]cnc3c2)c2cc(Cl)ccc12 [Example 340, 1-(1H-benzo[d]imidazol-5-yl)-7-chloro-quinazoline-2,4(1H,3H)-dione]
< 200	CNc1nc(=O)n(-c2ccccc2)c2cc(C(F)(F)F)c(Br)cc12 [Example 303, 6-bromo-4-(methylamino)-1-phenyl-7-(trifluoromethyl)quinazolin-2(1H)-one]
< 200	Nc1nc(=O)n(-c2ccccc2Br)c2cc(Cl)ccc12 [Example 149, 4-amino-1-(2-bromophenyl)-7-chloro-hydroquinazolin-2-one]
< 200	CNc1nc(=O)n(-c2cccc(C#N)c2C)c2cc(Cl)ccc12 [Example 173, 3-[7-chloro-4-(methylamino)-2-oxo-hydroquinazolinyl]-2-methylbenzene-carbonitrile]
1000 to 10000	CN(C)C(=O)CNc1nc(=O)n(-c2ccccc2)c2cc(Cl)ccc12 [Example 231, 2-[(7-chloro-2-oxo-1-phenyl-1,2-dihydroquinazolin-4-yl)amino]-N,N-dimethylacetamide]

Same assay, conditions: L-methionine 500 uM, ATP 500 uM, numeric bound

IC50 [nM]	Structure (SMILES)
> 10000	O=c1[nH]c(=O)n(-c2ccccc2Cl)c2c(Cl)c(C(F)(F)F)ccc12 [Example 360, 8-chloro-1-(2-chlorophenyl)-7-(trifluoro-methyl)pyrido[2,3-d]pyrimidine-2,4(1H,3H)-dione-1]
> 10000	O=c1[nH]c(=O)n(-c2cccc3nc[nH]c23)c2cc(Cl)ccc12 [Example 305, 1-benzimidazol-7-yl-7-chloro-1,3-dihydroquinazoline-2,4-dione]

— patent publication US11046691B1 (IDEAYA BIOSCIENCES, INC., priority 2018, dated 2021)
